Test results from patent US20150344466A1 (SUMITOMO CHEMICAL COMPANY, LIMITED, priority 2013, published 2015).

Tests used:
Type in all cases: in vivo
[1] = tested on: Culex pipiens pallens; assay: Knockdown spray test on adult Culex pipiens pallens (Test Example 4); details: topical, 0.25 h, active ingredient 0.1% w/v, 0.5 ml sprayed, within 15 minutes, read-out: knockdown rate of the test insects within 15 minutes
Method in brief: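 Knockdown counts were taken 2, 5 and 15 min after spraying and expressed as percent of the 10 adults tested. For the spray, 0.5 ml of solution was applied by spray gun (0.4 kg/cm^2) from 30 cm above a gauze-covered cup in a test chamber; the cup was taken out right after spraying.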

[2] = tested on: Blattella germanica; assay: Knockdown spray test on Blattella germanica, 0.1% w/v oil formulation (Test Example 2); details: topical, 0.25 h, active ingredient 0.1% w/v, 1.5 ml sprayed, within 15 minutes, read-out: knockdown rate of the test insects within 15 minutes
Method in brief: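 Ten German cockroaches (5 males, 5 females) in a mesh-bottomed, butter-walled container were sprayed with 1.5 ml test solution from 60 cm at 0.42 kg/cm^2 inside a chamber.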

[3] = tested on: Musca domestica; assay: Knockdown spray test on adult Musca domestica (Test Example 3); details: topical, 0.25 h, active ingredient 2.0% w/v, 0.5 ml sprayed, within 15 minutes, read-out: knockdown rate of the test insects within 15 minutes
Protocol: Ten adult Musca domestica (five males and five females) were released in a polyethylene cup (bottom diameter: 10.6 cm), and the cup was covered with a 16-mesh nylon gauze. The polyethylene cup was placed on the bottom of a test chamber (bottom: 46 cm×46 cm, height: 70 cm). From a height of 30 cm above the upper surface of the polyethylene cup, 0.5 ml of the test drug solution was sprayed using a spray gun (a spraying pressure of 0.9 kg/cm^2). Immediately after spraying, the cup was taken out from the test chamber, and after 2 minutes, 5 minutes and 15 minutes, the number of knocked-down insects was counted to obtain a knockdown rate. The knockdown rate was calculated by the following equation.
(§1) Knockdown Rate (%)=(Number of Knocked-down Insects/Number of Tested Insects)×100

[4] = tested on: Plutella xylostella; assay: Foliar spray test on Plutella xylostella on cabbage (Test Example 10); details: 120 h, third instar larvae of Plutella xylostella on cabbage, 500 ppm spray 20 ml/cup, after five days, read-out: controlling value
Protocol: On the other hand, cabbage was planted in a polyethylene cup, and grown until the third-fourth true leaf was spread. The test spray solution was sprayed to the cabbage at a ratio of 20 ml/cup. After the drug solution sprayed on the cabbage was dried, 10 third instar larvae of Plutella xylostella were allowed to parasitize the cabbage. After five days, the number of Plutella xylostella was investigated, and the controlling value was calculated according to the following standard. Controlling value (%)={1−(Cb×Tai)/(Cai×Tb)}×100 In the equation, the symbols represent as follows. Cb: the number of insects in a non-treated section before treatment Cai: the number of insects in a non-treated section on observation Tb: the number of insects in a treated section before treatment Tai: the number of insects in a treated section on observation

[5] = tested on: Musca domestica; assay: Filter paper/sucrose bait death rate test on Musca domestica (Test Example 5); details: female imagoes of Musca domestica, 0.7 ml on filter paper, after 24 hours
Protocol: A filter paper having a diameter of 5.5 cm was spread on the bottom of a polyethylene cup having the same diameter and 0.7 ml of the test drug solution was added dropwise onto the filter paper, and 30 mg of sucrose was uniformly placed as bait.
Into the polyethylene cup, 10 female imagoes of Musca domestica were released, and the cup was sealed with a lid. After 24 hours, the life and death of Musca domestica was examined, and the death rate was calculated. The death rate was calculated by the following equation.
Death rate (%)=(Number of dead insects/Number of tested insects)×100

[6] = tested on: Blattella germanica; assay: Knockdown spray test on Blattella germanica, 2.0% w/v oil formulation (Test Example 1); details: topical, 0.25 h, active ingredient 2.0% w/v, 1.5 ml sprayed, within 15 minutes, read-out: knockdown rate of the test insects within 15 minutes
Protocol: Ten Blattella germanica (5 males and 5 females) were released in a test container (8.75 cm in diameter, 7.5 cm in height, and the bottom made of 16 mesh metallic wire) with the inner wall on which butter was applied, and the container was placed on the bottom of a test chamber (bottom: 46 cm×46 cm, height: 70 cm). From a height of 60 cm above the upper surface of the container, 1.5 ml of the test drug solution was sprayed using a spray gun (a spraying pressure of 0.42 kg/cm^2). Thirty seconds after spraying, the container was taken out from the test chamber, and after 2 minutes, 5 minutes and 15 minutes, the number of knocked-down insects was counted to obtain a knockdown rate. The knockdown rate was calculated by the following equation.
as §1

SMILES | pest or weed control at 0.1 % strength [1] | pest or weed control at 0.1 % strength [2] | pest or weed control at 2 % strength [3] | pest or weed control at 500 ppm [4] | pest or weed control at 500 ppm [5] | pest or weed control at 2 % strength [6]
O=C(NCC1CCOC1)c1cc(COCC2COc3ccccc3O2)on1 (stereo not drawn) [(120), N-(tetrahydrofuran-3-ylmethyl)-5-(1,4-benzodioxan-2-ylmethoxymethyl)isoxazole-3-carboxamide] | ≥ 80% | ≥ 80% | ≥ 80% |  |  | 
CSc1ccc(COCc2cc(C(=O)NCC3CCOC3)no2)cc1 (stereo not drawn) [(103), N-(tetrahydrofuran-3-ylmethyl)-5-(4-methylthiobenzyloxymethyl)isoxazole-3-carboxamide] | ≥ 80% | ≥ 80% |  | ≥ 90% |  | 
Cc1c(C(=O)NCC2CCOC2)noc1Cc1cccc(F)c1 (stereo not drawn) [(294), N-(tetrahydrofuran-3-ylmethyl)-4-methyl-5-(3-fluorobezyl)isoxazole-3-carboxamide] | ≥ 80% | ≥ 80% |  | ≥ 90% | ≥ 90% | 
O=C(NCC1CCOC1)c1cc(CCCOCc2ccccc2)on1 (stereo not drawn) [(139), N-(tetrahydrofuran-3-ylmethyl)-5-(3-benzyloxypropyl)isoxazole-3-carboxamide] | ≥ 80% |  | ≥ 80% |  |  | ≥ 80%
O=C(NCC1CCOCC1)c1cc(CCCc2ccccc2)on1 [(235), N-(tetrahydropyran-4-ylmethyl)-5-(3-phenylpropyl)isoxazole-3-carboxamide] | ≥ 80% | ≥ 80% | ≥ 80% |  |  | 
O=C(NCC1CCOC1)c1cc(COCCOc2ccccc2)on1 (stereo not drawn) [(149), N-(tetrahydrofuran-3-ylmethyl)-5-(2-phenoxyethoxymethyl)isoxazole-3-carboxamide] | ≥ 80% | ≥ 80% |  |  |  | ≥ 80%
O=C(NCC1CCOC1)c1cc(COc2ccccc2)on1 (stereo not drawn) [(23), N-(tetrahydrofuran-3-ylmethyl)-5-phenyloxymethylisoxazole-3-carboxamide] | ≥ 80% |  |  | ≥ 90% |  | ≥ 80%
Cc1cccc(COCc2cc(C(=O)NCC3CCOCC3)no2)c1 [(83), N-(tetrahydropyran-4-ylmethyl)-5-(3-methylbenzyloxymethyl)isoxazole-3-carboxamide] | ≥ 80% | ≥ 80% |  | ≥ 90% |  | 
O=C(NCC1CCOC1)c1cc(Cc2cccc3ccccc23)on1 (stereo not drawn) [(160), N-(tetrahydrofuran-3-ylmethyl)-5-(naphthalen-1-ylmethyl)isoxazole-3-carboxamide] | ≥ 80% |  | ≥ 80% |  |  | 
O=C(NCC1CCOC1)c1cc(Cc2ccc3ccccc3c2)on1 (stereo not drawn) [(159), N-(tetrahydrofuran-3-ylmethyl)-5-(naphthalen-2-ylmethyl)isoxazole-3-carboxamide] | ≥ 80% |  | ≥ 80% |  |  | 
Cc1ccc(COCc2cc(C(=O)NCC3CCOC3)no2)cc1 (stereo not drawn) [(97), N-(tetrahydrofuran-3-ylmethyl)-5-(4-methylbenzyloxymethyl)isoxazole-3-carboxamide] | ≥ 80% | ≥ 80% |  | ≥ 90% |  | 
O=C(NCC1CCOC1)c1cc(COc2ccccc2Cl)on1 (stereo not drawn) [(176), N-(tetrahydrofuran-3-ylmethyl)-5-(2-chlorophenoxymethyl)isoxazole-3-carboxamide] | ≥ 80% | ≥ 80% | ≥ 80% |  | ≥ 90% | 
Cc1c(C(=O)NCC2CCOC2)noc1COCc1ccccc1 (stereo not drawn) [(169), N-(tetrahydrofuran-3-ylmethyl)-(5-benzyloxymethyl-4-methyl) isoxazole-3-carboxamide] | ≥ 80% | ≥ 80% | ≥ 80% |  |  | 
O=C(NCC1CCOC1)c1cc(COCc2ccccc2F)on1 (stereo not drawn) [(264), N-(tetrahydrofuran-3-ylmethyl)-5-(2-fluorobenzyloxymethyl)isoxazole-3-carboxamide] | ≥ 80% | ≥ 80% | ≥ 80% |  | ≥ 90% | 
Cc1ccc(COCc2cc(C(=O)NCC3CCOCC3)no2)cc1 [(98), N-(tetrahydropyran-4-ylmethyl)-5-(4-methylbenzyloxymethyl)isoxazole-3-carboxamide] | ≥ 80% | ≥ 80% |  | ≥ 90% |  | 
CSc1ccc(COCc2cc(C(=O)NCC3CCOCC3)no2)cc1 [(104), N-(tetrahydropyran-4-ylmethyl)-5-(4-methylthiobenzyloxymethyl)isoxazole-3-carboxamide] | ≥ 80% | ≥ 80% |  | ≥ 90% |  | 
O=C(NCC1CCOC1)c1cc(Cc2cccc(OC(F)(F)F)c2)on1 (stereo not drawn) [(313), N-(tetrahydrofuran-3-ylmethyl)-5-(3-trifluoromethoxybenzyl) isoxazole-3-carboxamide] | ≥ 80% | ≥ 80% |  | ≥ 90% | ≥ 90% | 
O=C(NCC1CCOC1)c1cc(COC/C=C/c2ccccc2)on1 (stereo not drawn) [(242), N-(tetrahydrofuran-3-ylmethyl)-5-(3-phenyl-(E)-2-propenyloxymethyl)isoxazole-3-carboxamide] | ≥ 80% |  | ≥ 80% |  |  | 
O=C(NCC1CCOC1)c1cc(COCCC2CCCC2)on1 (stereo not drawn) [(132), N-(tetrahydrofuran-3-ylmethyl)-5-(2-cyclopentylethyl)oxymethylisoxazole-3-carboxamide] | ≥ 80% | ≥ 80% | ≥ 80% |  | ≥ 90% | 
COc1ccc(COCc2cc(C(=O)NCC3CCOCC3)no2)cc1 [(100), N-(tetrahydropyran-4-ylmethyl)-5-(4-methoxybenzyloxymethyl) isoxazole-3-carboxamide] | ≥ 80% | ≥ 80% |  | ≥ 90% | ≥ 90% | 
Cc1c(C(=O)NCC2CCOC2)noc1COCc1ccc2ccccc2c1 (stereo not drawn) [(213), N-(tetrahydrofuran-3-ylmethyl)-4-methyl-5-(2-naphthylmethoxymethyl)isoxazole-3-carboxamide] | ≥ 80% | ≥ 80% | ≥ 80% |  |  | 
O=C(NCC1COC1)c1cc(COCc2ccccc2)on1 [(337), N-(oxetan-3-ylmethyl)-5-benrzyloxymethylisoxazole-3-carboxamide] | ≥ 80% |  |  |  |  | ≥ 80%
CC(OCc1cc(C(=O)NCC2CCOC2)no1)c1ccc2ccccc2c1 (stereo not drawn) [(28), N-(tetrahydrofuran-3-ylmethyl)-5-[1-(2-naphthyl)ethyl]oxymethylisoxazole-3-carboxamide] | ≥ 80% |  |  |  |  | ≥ 80%
O=C(NCC1CCCO1)c1cc(COCc2ccccc2)on1 (stereo not drawn) [(32), N-(tetrahydrofuran-2-ylmethyl)-5-benzyloxymethylisoxazole-3-carboxamide] | ≥ 80% |  |  |  |  | ≥ 80%
